According to the supplement of paper PMC8612539:
In brackets after ≈: the same amount, converted by molar mass.

How the values were obtained:
Enterococcus spp. = experiment: minimum inhibitory concentration (MIC)
Description: (§1)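 Broth microdilution MIC (Sensititre BOPO7F bovine plate, CLSI methods) of 19 antimicrobials against field isolates of P. multocida, M. haemolytica, H. somni (deep nasopharyngeal swabs) and E. coli, Enterococcus spp. (rectal swabs) from weaned dairy heifers. Incubation 16-24 h at 35 C. MIC is the lowest concentration preventing visible growth. Values with <= or > lie at the tested range limits. Trimethoprim-sulfamethoxazole is given as the trimethoprim component of a 1:19 mixture.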

Mannheimia haemolytica = experiment: minimum inhibitory concentration (MIC)
Description: as §1

CC[C@H]1OC(=O)C[C@@H](O)[C@H](C)[C@@H](O[C@@H]2O[C@H](C)[C@@H](O)[C@H](N(C)C)[C@H]2O)[C@@H](CCN2C[C@H](C)C[C@H](C)C2)C[C@@H](C)C(=O)/C=C/C(C)=C/[C@@H]1CO[C@@H]1O[C@H](C)[C@@H](O)[C@@H](OC)[C@H]1OC [Tilmicosin]
minimum inhibitory concentration [µg/mL]
Conditions | Enterococcus spp. | Mannheimia haemolytica
isolate (source animal id): 2 | 8 (≈ 9.2 µM) | –
isolate (source animal id): 8 | – | 4 (≈ 4.6 µM)
isolate (source animal id): 13 | – | 4 (≈ 4.6 µM)
isolate (source animal id): 18 | – | 4 (≈ 4.6 µM)
isolate (source animal id): 21 | – | 4 (≈ 4.6 µM)
isolate (source animal id): 25 | – | > 16
isolate (source animal id): 27 | – | > 16
isolate (source animal id): 28 | – | 16 (≈ 18.4 µM)
isolate (source animal id): 30 | – | 8 (≈ 9.2 µM)
isolate (source animal id): 31 | – | > 16
isolate (source animal id): 32 | – | 4 (≈ 4.6 µM)
isolate (source animal id): 34 | – | 8 (≈ 9.2 µM)
isolate (source animal id): 35 | > 16 | –
isolate (source animal id): 36 | – | > 16
isolate (source animal id): 37 | – | > 16
isolate (source animal id): 40 | – | 4 (≈ 4.6 µM)
isolate (source animal id): 41 | – | 4 (≈ 4.6 µM)
isolate (source animal id): 42 | 8 (≈ 9.2 µM) | –
isolate (source animal id): 43 | – | 4 (≈ 4.6 µM)
isolate (source animal id): 44 | 8 (≈ 9.2 µM) | –
isolate (source animal id): 46 | – | > 16
isolate (source animal id): 49 | – | > 16
isolate (source animal id): 50 | – | > 16
isolate (source animal id): 51 | – | 4 (≈ 4.6 µM)
isolate (source animal id): 52 | – | 4 (≈ 4.6 µM)
isolate (source animal id): 53 | – | 4 (≈ 4.6 µM)
isolate (source animal id): 55 | – | 4 (≈ 4.6 µM)
isolate (source animal id): 56 | – | 4 (≈ 4.6 µM)
isolate (source animal id): 57 | – | > 16
isolate (source animal id): 79 | 8 (≈ 9.2 µM) | –
isolate (source animal id): 88 | 8 (≈ 9.2 µM) | –
isolate (source animal id): 91 | 8 (≈ 9.2 µM) | –
isolate (source animal id): 92 | 16 (≈ 18.4 µM) | –
isolate (source animal id): 100 | – | > 16
isolate (source animal id): 103 | – | > 16
isolate (source animal id): 107 | – | 16 (≈ 18.4 µM)
isolate (source animal id): 108 | – | 16 (≈ 18.4 µM)
isolate (source animal id): 111 | 8 (≈ 9.2 µM) | –
isolate (source animal id): 112 | – | > 16
isolate (source animal id): 113 | – | > 16
isolate (source animal id): 121 | – | > 16
isolate (source animal id): 122 | > 16 | > 16
isolate (source animal id): 123 | 8 (≈ 9.2 µM) | > 16
isolate (source animal id): 126 | – | > 16
isolate (source animal id): 133 | 8 (≈ 9.2 µM) | > 16
isolate (source animal id): 135 | – | > 16
isolate (source animal id): 138 | – | > 16
isolate (source animal id): 141 | – | > 16
isolate (source animal id): 142 | – | > 16
isolate (source animal id): 145 | – | 16 (≈ 18.4 µM)
isolate (source animal id): 149 | – | 8 (≈ 9.2 µM)
isolate (source animal id): 151 | – | 8 (≈ 9.2 µM)
isolate (source animal id): 152 | – | > 16
isolate (source animal id): 154 | – | 8 (≈ 9.2 µM)
isolate (source animal id): 158 | > 16 | –
isolate (source animal id): 159 | – | > 16
isolate (source animal id): 162 | – | > 16
isolate (source animal id): 168 | 16 (≈ 18.4 µM) | –
isolate (source animal id): 169 | 16 (≈ 18.4 µM) | –
isolate (source animal id): 170 | – | 16 (≈ 18.4 µM)
isolate (source animal id): 171 | 16 (≈ 18.4 µM) | 8 (≈ 9.2 µM)
isolate (source animal id): 172 | – | 16 (≈ 18.4 µM)
isolate (source animal id): 173 | – | 16 (≈ 18.4 µM)
isolate (source animal id): 175 | > 16 | –
isolate (source animal id): 177 | 16 (≈ 18.4 µM) | –
isolate (source animal id): 179 | – | 8 (≈ 9.2 µM)
isolate (source animal id): 180 | – | 4 (≈ 4.6 µM)
isolate (source animal id): 181 | 8 (≈ 9.2 µM) | –
isolate (source animal id): 182 | 16 (≈ 18.4 µM) | –
isolate (source animal id): 183 | 8 (≈ 9.2 µM) | 4 (≈ 4.6 µM)
isolate (source animal id): 186 | – | 4 (≈ 4.6 µM)
isolate (source animal id): 187 | 16 (≈ 18.4 µM) | 8 (≈ 9.2 µM)
isolate (source animal id): 188 | – | 4 (≈ 4.6 µM)
isolate (source animal id): 190 | 8 (≈ 9.2 µM) | 4 (≈ 4.6 µM)
isolate (source animal id): 191 | – | 16 (≈ 18.4 µM)
isolate (source animal id): 192 | – | 8 (≈ 9.2 µM)
isolate (source animal id): 194 | 8 (≈ 9.2 µM) | –
isolate (source animal id): 195 | 8 (≈ 9.2 µM) | –
isolate (source animal id): 197 | 8 (≈ 9.2 µM) | –
isolate (source animal id): 201 | – | 16 (≈ 18.4 µM)
isolate (source animal id): 202 | – | 16 (≈ 18.4 µM)
isolate (source animal id): 209 | – | 16 (≈ 18.4 µM)
isolate (source animal id): 211 | 8 (≈ 9.2 µM) | 16 (≈ 18.4 µM)
isolate (source animal id): 214 | 8 (≈ 9.2 µM) | –
isolate (source animal id): 220 | – | 16 (≈ 18.4 µM)
isolate (source animal id): 221 | – | 8 (≈ 9.2 µM)
isolate (source animal id): 222 | 8 (≈ 9.2 µM) | –
isolate (source animal id): 223 | 8 (≈ 9.2 µM) | 8 (≈ 9.2 µM)
isolate (source animal id): 228 | > 16 | –
isolate (source animal id): 230 | > 16 | –
isolate (source animal id): 233 | – | 8 (≈ 9.2 µM)
isolate (source animal id): 235 | > 16 | –
isolate (source animal id): 236 | 8 (≈ 9.2 µM) | –
isolate (source animal id): 237 | – | > 16
isolate (source animal id): 239 | 4 (≈ 4.6 µM) | –
isolate (source animal id): 241 | > 16 | > 16
isolate (source animal id): 244 | 16 (≈ 18.4 µM) | –
isolate (source animal id): 246 | 16 (≈ 18.4 µM) | –
isolate (source animal id): 247 | > 16 | –
isolate (source animal id): 250 | 16 (≈ 18.4 µM) | –
isolate (source animal id): 252 | > 16 | > 16
isolate (source animal id): 253 | – | > 16
isolate (source animal id): 259 | – | > 16
isolate (source animal id): 260 | – | > 16
isolate (source animal id): 262 | – | > 16
isolate (source animal id): 268 | > 16 | –
isolate (source animal id): 282 | 8 (≈ 9.2 µM) | > 16
isolate (source animal id): 285 | > 16 | –
isolate (source animal id): 287 | – | > 16
isolate (source animal id): 288 | – | 4 (≈ 4.6 µM)
isolate (source animal id): 289 | 16 (≈ 18.4 µM) | –
isolate (source animal id): 290 | 8 (≈ 9.2 µM) | –
isolate (source animal id): 291 | – | 4 (≈ 4.6 µM)
isolate (source animal id): 293 | – | > 16
isolate (source animal id): 296 | 8 (≈ 9.2 µM) | –
isolate (source animal id): 298 | 4 (≈ 4.6 µM) | > 16
isolate (source animal id): 299 | – | > 16
isolate (source animal id): 300 | – | 8 (≈ 9.2 µM)
isolate (source animal id): 301 | 8 (≈ 9.2 µM) | –
isolate (source animal id): 302 | – | > 16
isolate (source animal id): 304 | – | > 16
isolate (source animal id): 306 | – | 4 (≈ 4.6 µM)
isolate (source animal id): 308 | – | 4 (≈ 4.6 µM)
isolate (source animal id): 309 | – | 4 (≈ 4.6 µM)
isolate (source animal id): 310 | > 16 | –
isolate (source animal id): 313 | – | > 16
isolate (source animal id): 318 | – | > 16
isolate (source animal id): 320 | 8 (≈ 9.2 µM) | 8 (≈ 9.2 µM)
isolate (source animal id): 321 | – | > 16
isolate (source animal id): 323 | – | > 16
isolate (source animal id): 324 | – | > 16
isolate (source animal id): 326 | – | > 16
isolate (source animal id): 328 | – | > 16
isolate (source animal id): 329 | – | > 16
isolate (source animal id): 331 | 8 (≈ 9.2 µM) | –
isolate (source animal id): 333 | 8 (≈ 9.2 µM) | > 16
isolate (source animal id): 335 | – | > 16
isolate (source animal id): 338 | – | > 16
isolate (source animal id): 341 | > 16 | –
